In experiment [1] the test system is GL26. Briefly: Antiproliferative study, glioma cell lines (MTT). Format: cell-based, Human. Particulars: Mus musculus, GL26, Glioblastoma, 96 hrs. The method, then:
Cells were passaged once a week. Prior to use the cells were detached from the culture flask by treating with trypsin for five to ten minutes. The cells were counted with a Neubauer glass slide and viability assessed by 0.25% trypan blue exclusion. Only flasks with >95% cell viability, were used in the study. Cell lines amplification and plating: Cells, 5×10^3 cells per well in 100 μL drug-free medium supplemented with 10% serum, were plated in 96-well flat bottom microtiter plates and incubated at 37° C. for 48 hrs before treatment. Evaluation of inhibitory activity on cell proliferation: Cells (in triplicate wells) were incubated 96 hrs with medium containing different concentrations of ECO-04601, starting at 5.0 μg/ml (10 μM). The compound was used in a solution of 1% DMSO in D-MEM or RPMI media (or other equivalent media). […] The optical density was measured before incubation (time 0) and following 96 hrs of incubation with test compound in order to measure the growth rate of each cell line.
At the end of the cell treatment, cell culture media was replaced with 150 μl of fresh medium containing 10 mM of 4-(2-hydroxyethyl)-1-piperazineethanesulfonic acid buffer, pH 7.4. […] The optical density was read in each well using a single wavelength spectrophotometer plate reader at 570 nm. […]

The test system of experiment [2] is GHD. Briefly: Antiproliferative study, glioma cell lines (MTT). Format: cell-based. Particulars: Homo sapiens, Astrocytoma, 96 hrs. Here is the method: Cells were passaged once a week. Prior to use the cells were detached from the culture flask by treating with trypsin for five to ten minutes. The cells were counted with a Neubauer glass slide and viability assessed by 0.25% trypan blue exclusion. Only flasks with >95% cell viability, were used in the study. Cell lines amplification and plating: Cells, 5×10^3 cells per well in 100 μL drug-free medium supplemented with 10% serum, were plated in 96-well flat bottom microtiter plates and incubated at 37° C. for 48 hrs before treatment. Evaluation of inhibitory activity on cell proliferation: Cells (in triplicate wells) were incubated 96 hrs with medium containing different concentrations of ECO-04601, starting at 5.0 μg/ml (10 μM). The compound was used in a solution of 1% DMSO in D-MEM or RPMI media (or other equivalent media). The concentrations of ECO-04601 were as follows: 10 μM (5.0 μg/ml), 1 μM (0.50 μg/ml), 0.5 μM (0.25 μg/ml), 0.1 μM (0.050 μg/ml), […] (0.025 μg/ml), 0.01 μM (0.0050 μg/ml), 0.001 μM (0.00050 μg/ml). Negative controls were cells treated with vehicle alone (1% DMSO in culture medium). Positive controls were cells treated with 4 to 6 increasing concentrations of cisplatin (CDDP) (data not shown). The optical density was measured before incubation (time 0) and following 96 hrs of incubation with test compound in order to measure the growth rate of each cell line.
At the end of the cell treatment, cell culture media was replaced with 150 μl of fresh medium containing 10 mM of 4-(2-hydroxyethyl)-1-piperazineethanesulfonic acid buffer, pH 7.4. Then 50 μl of 2.5 mg/ml of 3-(4,5-dimethylthiazo-2-yl)-2,5-diphenyltetrazolium bromide in PBS pH 7.4, were added to each well and the culture plates incubated for 4 hrs at 37° C. The resulting supernatant was removed and formazan crystals were dissolved with 200 μl of DMSO followed by 25 μl of glycine buffer (0.1 M glycine plus 0.1 M NaCl, pH 10.5). The optical density was read in each well using a single wavelength spectrophotometer plate reader at 570 nm. […] Each of the cell lines was tested in at least 3 independent experiments.

Experiment [3] deals with Bacillus subtilis ATCC 23857. Briefly: MIC broth microdilution. Format: cell-based. Particulars: ATCC23857, 35° C., 24 hrs. The method, then:
(§1) The MIC determination of ECO-04601 against bacteria strains (Bacillus subtilis—ATCC 23857; Micrococcus luteus—ATCC 9341) was performed using broth microdilution assay (Methods for Dilution Antimicrobial Susceptibility Tests for Bacteria That Grow Aerobically; Approved Standard-Fifth Edition. NCCLS document M7-A5 (ISBN 1-56238-394-9). NCCLS, 940 West Valley Road, Suite 1400, Wayne, Pa. 19087-1898 USA.). Test compound preparation: […] The first dilution (3.2 mg/ml) was prepared by resuspending 0.5 mg of each test article in 156.25 μl of DMSO. […] Assay plates were incubated at 35° C. for 24 hrs.
For orientation: In broth dilution the organism is exposed to a series of concentrations in liquid medium.

In experiment [4] the test system is Micrococcus luteus ATCC 9341. Briefly: MIC broth microdilution. The class given is cell-based. Particulars: ATCC9341, 35° C., 24 hrs. Here is the method:
as §1

Structures are written as SMILES. In brackets after ≈: the same amount, converted by molar mass.

For orientation: IC50 means the concentration needed to halve the response being measured. In general, MIC refers to the smallest concentration in the dilution series that meets the test's criterion for growth inhibition.

Consider `CC(C)=CCC/C(C)=C/CC/C(C)=C/CN1C(=O)c2cccc(O)c2Nc2c(O)cc(O)cc21` [ECO-04601, 10-farnesyl-4,6,8-trihydroxy-dibenzodiazepin-11-one], for which the IC50 in experiment [1] is 8.93 ± 1.1 µM; in experiment [2], 6.29 ± 2.98 µM. Besides, the MIC in experiment [3] was found to be 12.5 mg/L (≈ 27 µM); in experiment [4], 6.25 mg/L (≈ 13.5 µM).

These data come from patent publication US7101872B2, “Farnesyl dibenzodiazepinone, and processes for its production” (Ecopia BioSciences, Inc., priority 2003, dated 2006).
